Test results taken from patent US8580825B2, “Oxadiazole inhibitors of leukotriene production” (Boehringer Ingelheim International GmbH, priority 2010, dated 2013).

Assays:
[1] = tested on: synthesis of LTB4 in human whole blood; assay: human whole blood LTB4 production inhibition assay; format: cell-based; conditions: calcimycin stimulated, read-out: hWB LTB4 IC50
Procedure, shortened: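 LTB4 in plasma was quantified by HTRF immunoassay. Before that, compound-treated heparinized whole blood (15 min, 37 °C) received 20 μM final calcimycin for a further 30 min at 37 °C, followed by centrifugation at 1500×g.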

[2] = target: T1, recombinant human FLAP protein (Homo sapiens, UniProt P20292); assay: FLAP binding assay (Scintillation Proximity Assay, displacement of [125I]L-691,831); conditions: read-out: FLAP SPA IC50
T1 construct: made in house; host or cells: Sf9 insect cells (100,000xg membrane fraction used)
T1 sequence (P20292 1-161): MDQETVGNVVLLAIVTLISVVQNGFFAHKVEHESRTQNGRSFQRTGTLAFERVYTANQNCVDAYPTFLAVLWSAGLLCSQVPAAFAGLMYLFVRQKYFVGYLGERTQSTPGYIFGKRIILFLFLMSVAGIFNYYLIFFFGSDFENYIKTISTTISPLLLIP
Procedure: Compounds are assessed for the ability to bind to FLAP in a binding assay that measures compound-specific displacement of an iodinated (^125I) FLAP inhibitor via a Scintillation Proximity Assay format (adapted from S. Charleson et al., Mol. Pharmacol., 1992, 41, 873-879).
Cell pellets produced from sf9 insect cells expressing recombinant human FLAP protein are resuspended in buffer A [15 mM Tris-HCl (pH 7.5), 2 mM MgCl2, 0.3 mM EDTA, 1 mM PMSF]. The cells are lysed with a Dounce homogenizer and the material is centrifuged at 10,000×g for 10 minutes. The supernatant is then collected and centrifuged at 100,000×g for 60 minutes. To prepare membrane protein for an assay, an aliquot of the 100,000×g pellet is resuspended in 1 ml of buffer A, Dounce homogenized, and finally subjected to polytron mixing (30 seconds). Membrane protein (25 μl, 5 μg) is mixed with WGA SPA beads (Amersham) and stirred for 1 h. […] (final concentrations: beads, 200 μg/well; protein, 5 μg/well; [^125I] probe, 0.08 nM/well (17 nCi/well). The plates are shaken for 2 h before reading on a Microbeta plate reader. Non-specific binding is determined by the addition of 10 μM cold L-691,831 compound.

Row | SMILES | IC50 [1] | IC50 [2]
1 | Cn1cc(-c2nc(C(C)(c3ccc(-c4cnc(N)nc4)nc3)C3CC3)no2)cn1 (stereo not shown) [Example 50, 5-(5-{1-cyclopropyl-1-[5-(1-methyl-1H-pyrazol-4-yl)-1,2,4-oxadiazol-3-yl]ethyl}pyridin-2-yl)pyrimidin-2-amine] | 110 nM | 9.5 nM
2 | CC(C)[C@](C)(c1ccc(-c2cnc(N)nc2)nc1)c1noc(-c2cnc(N3CCNCC3)cn2)n1 [Example 51, 5-{5-[(2R)-3-methyl-2-{5-[5-(piperazin-1-yl)pyrazin-2-yl]-1,2,4-oxadiazol-3-yl}butan-2-yl]pyridin-2-yl}pyrimidin-2-amine] | 160 nM | 3 nM
3 | CC(C)[C@@](C)(c1ccc(-c2cnc(N)nc2)nc1)c1noc(-c2cnc(N3CCNCC3)cn2)n1 [Example 52, 5-{5-[(2S)-3-methyl-2-{5-[5-(piperazin-1-yl)pyrazin-2-yl]-1,2,4-oxadiazol-3-yl}butan-2-yl]pyridin-2-yl}pyrimidin-2-amine] | 270 nM | 14 nM
4 | CNC(=O)Cn1cc(-c2nc([C@@](C)(c3ccc(-c4cnc(N)nc4)nc3)C(C)C)no2)cn1 [Example 53, 2-[4-(3-{(2R)-2-[6-(2-aminopyrimidin-5-yl)pyridin-3-yl]-3-methylbutan-2-yl}-1,2,4-oxadiazol-5-yl)-1H-pyrazol-1-yl]-N-methylacetamide] | 230 nM | 12.7 nM
5 | CNC(=O)Cn1cc(-c2nc([C@](C)(c3ccc(-c4cnc(N)nc4)nc3)C(C)C)no2)cn1 [Example 54, 2-[4-(3-{(2S)-2-[6-(2-aminopyrimidin-5-yl)pyridin-3-yl]-3-methylbutan-2-yl}-1,2,4-oxadiazol-5-yl)-1H-pyrazol-1-yl]-N-methylacetamide] | 750 nM | 70.7 nM
6 | COCCN(C)c1cnc(-c2nc([C@@](C)(c3ccc(-c4cnc(N)nc4)nc3)C(C)C)no2)cn1 [Example 55, 5-{5-[(2R)-2-(5-{5-[(2-methoxyethyl)(methyl)amino]pyrazin-2-yl}-1,2,4-oxadiazol-3-yl)-3-methylbutan-2-yl]pyridin-2-yl}pyrimidin-2-amine] | 46 nM | 2.5 nM
7 | COCCN(C)c1cnc(-c2nc([C@](C)(c3ccc(-c4cnc(N)nc4)nc3)C(C)C)no2)cn1 [Example 56, 5-{5-[(2S)-2-(5-{5-[(2-methoxyethyl)(methyl)amino]pyrazin-2-yl}-1,2,4-oxadiazol-3-yl)-3-methylbutan-2-yl]pyridin-2-yl}pyrimidin-2-amine] | 230 nM | 11.8 nM
8 | Cn1cc(-c2nc([C@@](C)(c3ccc(-c4cnc(N)nc4)nc3)C3CC3)no2)cn1 [Example 57, 5-(5-{(1R)-1-cyclopropyl-1-[5-(1-methyl-1H-pyrazol-4-yl)-1,2,4-oxadiazol-3-yl]ethyl}pyridin-2-yl)pyrimidin-2-amine] | 33 nM | 16 nM
9 | Cn1cc(-c2nc([C@](C)(c3ccc(-c4cnc(N)nc4)nc3)C3CC3)no2)cn1 [Example 58, 5-(5-{(1S)-1-cyclopropyl-1-[5-(1-methyl-1H-pyrazol-4-yl)-1,2,4-oxadiazol-3-yl]ethyl}pyridin-2-yl)pyrimidin-2-amine] | 980 nM | 230 nM
10 | CC(C)[C@@](C)(c1ccc(-c2cnc(N)nc2)nc1)c1noc(-c2cnn(CC(=O)N(C)C)c2)n1 [Example 59, 2-[4-(3-{(2S)-2-[6-(2-aminopyrimidin-5-yl)pyridin-3-yl]-3-methylbutan-2-yl}-1,2,4-oxadiazol-5-yl)-1H-pyrazol-1-yl]-N,N-dimethylacetamide] | 1800 nM | 450 nM
11 | CC(C)[C@](C)(c1ccc(-c2ccc(N)nc2)nc1)c1noc(-c2cnn(C)c2)n1 [Example 60, 5-{(2R)-3-methyl-2-[5-(1-methyl-1H-pyrazol-4-yl)-1,2,4-oxadiazol-3-yl]butan-2-yl}-2,3′-bipyridin-6′-amine] | 17 nM | 3.4 nM
12 | CC(C)[C@](C)(c1ccc(-c2cnc(N)nc2)nc1)c1noc(-c2cnn(CC(=O)N(C)C)c2)n1 [Example 61, 2-[4-(3-{(2R)-2-[6-(2-aminopyrimidin-5-yl)pyridin-3-yl]-3-methylbutan-2-yl}-1,2,4-oxadiazol-5-yl)-1H-pyrazol-1-yl]-N,N-dimethylacetamide] | 48 nM | 3 nM
13 | CC(C)C(C)(c1ccc(-c2cnc(N)nc2)nc1)c1noc(-c2ccc(I)cc2)n1 (stereo not shown) [Example 62, 5-(5-{2-[5-(4-iodophenyl)-1,2,4-oxadiazol-3-yl]-3-methylbutan-2-yl}pyridin-2-yl)pyrimidin-2-amine] | 420 nM | 19.4 nM
14 | CC(c1ccc(-c2cnc(N)nc2)nc1)(c1noc(-c2cnn(C3COC3)c2)n1)C1CC1 (stereo not shown) [Example 63, 5-[5-(1-cyclopropyl-1-{5-[1-(oxetan-3-yl)-1H-pyrazol-4-yl]-1,2,4-oxadiazol-3-yl}-ethyl)pyridin-2-yl]pyrimidin-2-amine] | 29 nM | 8.7 nM
15 | CC(c1ccc(-c2cnc(N)nc2)nc1)(c1noc(-c2cn[nH]c2)n1)C1CC1 (stereo not shown) [Example 64, 5-(5-{1-cyclopropyl-1-[5-(1H-pyrazol-4-yl)-1,2,4-oxadiazol-3-yl]ethyl}pyridin-2-yl)pyrimidin-2-amine] | 80 nM | 6.3 nM
16 | C=C(CO)n1cc(-c2nc(C(C)(c3ccc(-c4cnc(N)nc4)nc3)C3CC3)no2)cn1 (stereo not shown) [Example 65, 2-[4-(3-{1-[6-(2-aminopyrimidin-5-yl)pyridin-3-yl]-1-cyclopropylethyl}-1,2,4-oxadiazol-5-yl)-1H-pyrazol-1-yl]prop-2-en-1-ol] | 28 nM | 1.6 nM
17 | CN(C)C(=O)Cn1cc(-c2nc(C(C)(c3ccc(-c4cnc(N)nc4)nc3)C3CC3)no2)cn1 (stereo not shown) [Example 67, 2-[4-(3-{1-[6-(2-aminopyrimidin-5-yl)pyridin-3-yl]-1-cyclopropylethyl}-1,2,4-oxadiazol-5-yl)-1H-pyrazol-1-yl]-N,N-dimethylacetamide] | 290 nM | 110 nM
18 | COCCn1cc(-c2nc(C(C)(c3ccc(-c4cnc(N)nc4)nc3)C3CC3)no2)cn1 (stereo not shown) [Example 68, 5-[5-(1-cyclopropyl-1-{5[1-(2-methoxyethyl)-1H-pyrazol-4-yl]-1,2,4-oxadiazol-3-yl}ethyl)pyridin-2-yl]pyrimidin-2-amine] | 80 nM | 24 nM
19 | CC(C)C(C)(c1ccc(-c2cnc(N)nc2)nc1)c1noc(-c2ccc(I)c(Br)c2)n1 (stereo not shown) [Example 69, 5-(5-{2-[5-(3-bromo-4-iodophenyl)-1,2,4-oxadiazol-3-yl]-3-methylbutan-2-yl}pyridin-2-yl)pyrimidin-2-amine] | 840 nM | 64.8 nM
20 | CC(C)C(C)(c1ccc(-c2cnc(N)nc2)nc1)c1noc(-c2cccnc2)n1 (stereo not shown) [Example 70, 5-(5-{3-methyl-2-[5-(pyridin-3-yl)-1,2,4-oxadiazol-3-yl]butan-2-yl}pyridin-2-yl)pyrimidin-2-amine] | 240 nM | 12.4 nM
21 | CC(C)C(C)(c1ccc(-c2cnc(N)nc2)nc1)c1noc(-c2ccccc2)n1 (stereo not shown) [Example 71, 5-{5-[3-methyl-2-(5-phenyl-1,2,4-oxadiazol-3-yl)butan-2-yl]pyridin-2-yl}pyrimidin-2-amine] | 840 nM | 8.1 nM
22 | Cc1ccc(-c2nc(C(C)(c3ccc(-c4cnc(N)nc4)nc3)C(C)C)no2)cn1 (stereo not shown) [Example 72, 5-(5-{3-methyl-2-[5-(6-methylpyridin-3-yl)-1,2,4-oxadiazol-3-yl]butan-2-yl}pyridin-2-yl)pyrimidin-2-amine] | 440 nM | 26.4 nM
23 | CC(C)C(C)(c1ccc(-c2cnc(N)nc2)nc1)c1noc(-c2cn[nH]c2)n1 (stereo not shown) [Example 73, 5-(5-{3-methyl-2-[5-(1H-pyrazol-4-yl)-1,2,4-oxadiazol-3-yl]butan-2-yl}pyridin-2-yl)pyrimidin-2-amine] | 110 nM | 3.9 nM
24 | CC(C)C(C)(c1ccc(-c2cnc(N)nc2)nc1)c1noc(-c2ccc(NCCO)nc2)n1 (stereo not shown) [Example 74, 2-{[5-(3-{2-[6-(2-aminopyrimidin-5-yl)pyridin-3-yl]-3-methylbutan-2-yl}-1,2,4-oxadiazol-5-yl)pyridin-2-yl]amino}ethanol] | 220 nM | 3.1 nM
25 | COCCn1cc(-c2nc([C@@](C)(c3ccc(-c4cnc(N)nc4)nc3)C3CC3)no2)cn1 [Example 75, 5-{5-[(1R)-1-cyclopropyl-1-{5-[1-(2-methoxyethyl)-1H-pyrazol-4-yl]-1,2,4-oxadiazol-3-yl}ethyl]pyridin-2-yl}pyrimidin-2-amine] | 52 nM | 32 nM
26 | COCCn1cc(-c2nc([C@](C)(c3ccc(-c4cnc(N)nc4)nc3)C3CC3)no2)cn1 [Example 76, 5-{5-[(1S)-1-cyclopropyl-1-{5-[1-(2-methoxyethyl)-1H-pyrazol-4-yl]-1,2,4-oxadiazol-3-yl}ethyl]pyridin-2-yl}pyrimidin-2-amine] | 2000 nM | 190 nM
